From PubChem BioAssay AID1963982 (Molecular Pharmacology Branch, DTP, NCI, 2024)
pIC50: −log10 of the molar value.

System: 313798-341-R-J2-PDC spheroids, viability
Experiment: Anticancer human tumor 313798-341-R-J2-PDC patient-derived cervical squamous cell carcinoma cell line growth inhibition [PI3K]
Conditions: spheroids with HUVEC and MSC; for pIC50: curve of first compound; for viability, T/C: stronger effect = lower value
How it was run: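 Combination activity was assessed by viability in multicellular tumor spheroids carrying HUVEC and MSC components. Agents were tested with PI3K inhibitors from a Cmax-based top dose (or 10 microM) downward in half-log increments.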

[1] = second compound 0.0316 µM, first compound 0.0316 µM
[2] = second compound 0.0316 µM, first compound 0.1 µM
[3] = second compound 0.0316 µM, first compound 0.316 µM
[4] = second compound 0.0316 µM, first compound 1 µM
[5] = second compound 0.0316 µM, first compound 3.16 µM
[6] = second compound 0.0316 µM, first compound 10 µM
[7] = second compound 0.1 µM, first compound 0.0316 µM
[8] = second compound 0.1 µM, first compound 0.1 µM
[9] = second compound 0.1 µM, first compound 0.316 µM
[10] = second compound 0.1 µM, first compound 1 µM
[11] = second compound 0.1 µM, first compound 3.16 µM
[12] = second compound 0.1 µM, first compound 10 µM
[13] = second compound 0.316 µM, first compound 0.0316 µM
[14] = second compound 0.316 µM, first compound 0.1 µM
[15] = second compound 0.316 µM, first compound 0.316 µM
[16] = second compound 0.316 µM, first compound 1 µM
[17] = second compound 0.316 µM, first compound 3.16 µM
[18] = second compound 0.316 µM, first compound 10 µM
[19] = second compound 1 µM, first compound 0.0316 µM
[20] = second compound 1 µM, first compound 0.1 µM
[21] = second compound 1 µM, first compound 0.316 µM
[22] = second compound 1 µM, first compound 1 µM
[23] = second compound 1 µM, first compound 3.16 µM
[24] = second compound 1 µM, first compound 10 µM
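Further: spheroids exposed to compounds for seven days.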
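Wherever viability, T/C is given: 100% = DMSO vehicle control viability.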

## CC(C)NCC(C(=O)N1CCN(c2ncnc3c2C(C)CC3O)CC1)c1ccc(Cl)cc1 (centres undefined) + CC(Nc1ccc2c(c1)OCCn1cc(N3C(=O)OCC3C(F)F)nc1-2)C(N)=O
Second compound 0.00316 µM
  pIC50: 5.65
Second compound 0.01 µM
  pIC50: 5.73
Second compound 0.0316 µM
  pIC50: 5.62
Second compound 0.1 µM
  pIC50: 5.72
Second compound 0.316 µM
  pIC50: 6.09
Second compound 1 µM
  pIC50: 7.13
Second compound 0.00316 µM, first compound 0.0316 µM
  viability, T/C: 107%
Second compound 0.00316 µM, first compound 0.1 µM
  viability, T/C: 94.9%
Second compound 0.00316 µM, first compound 0.316 µM
  viability, T/C: 81%
Second compound 0.00316 µM, first compound 1 µM
  viability, T/C: 68.6%
Second compound 0.00316 µM, first compound 3.16 µM
  viability, T/C: 40.5%
Second compound 0.00316 µM, first compound 10 µM
  viability, T/C: 25.9%
Second compound 0.01 µM, first compound 0.0316 µM
  viability, T/C: 107%
Second compound 0.01 µM, first compound 0.1 µM
  viability, T/C: 103%
Second compound 0.01 µM, first compound 0.316 µM
  viability, T/C: 93.5%
Second compound 0.01 µM, first compound 1 µM
  viability, T/C: 61.1%
Second compound 0.01 µM, first compound 3.16 µM
  viability, T/C: 41.1%
Second compound 0.01 µM, first compound 10 µM
  viability, T/C: 30.2%
[1]
  viability, T/C: 106%
[2]
  viability, T/C: 92.5%
[3]
  viability, T/C: 82.2%
[4]
  viability, T/C: 69.5%
[5]
  viability, T/C: 41.3%
[6]
  viability, T/C: 25.6%
[7]
  viability, T/C: 121%
[8]
  viability, T/C: 99.6%
[9]
  viability, T/C: 80.9%
[10]
  viability, T/C: 62.5%
[11]
  viability, T/C: 39.5%
[12]
  viability, T/C: 27.2%
[13]
  viability, T/C: 84.6%
[14]
  viability, T/C: 84.2%
[15]
  viability, T/C: 62.3%
[16]
  viability, T/C: 46.7%
[17]
  viability, T/C: 35.4%
[18]
  viability, T/C: 26%
[19]
  viability, T/C: 53%
[20]
  viability, T/C: 50.2%
[21]
  viability, T/C: 42.1%
[22]
  viability, T/C: 38.2%
[23]
  viability, T/C: 30.5%
[24]
  viability, T/C: 25.5%

## CC(Cn1ccc(-c2ccc(C#N)c(Cl)c2)n1)NC(=O)c1cc(C(C)O)[nH]n1 (centres undefined) + Cc1nc(NC(=O)N2CCCC2C(N)=O)sc1-c1ccnc(C(C)(C)C(F)(F)F)c1
Second compound 0.0316 µM
  pIC50: < 5.00
Second compound 0.1 µM
  pIC50: < 5.00
Second compound 0.316 µM
  pIC50: < 5.00
Second compound 1 µM
  pIC50: < 5.00
Second compound 3.16 µM
  pIC50: < 5.00
Second compound 10 µM
  pIC50: > 7.50
[1]
  viability, T/C: 103%
[2]
  viability, T/C: 93.9%
[3]
  viability, T/C: 97.6%
[4]
  viability, T/C: 99.9%
[5]
  viability, T/C: 111%
[6]
  viability, T/C: 92.1%
[7]
  viability, T/C: 114%
[8]
  viability, T/C: 109%
[9]
  viability, T/C: 103%
[10]
  viability, T/C: 113%
[11]
  viability, T/C: 114%
[12]
  viability, T/C: 103%
[13]
  viability, T/C: 114%
[14]
  viability, T/C: 104%
[15]
  viability, T/C: 118%
[16]
  viability, T/C: 114%
[17]
  viability, T/C: 108%
[18]
  viability, T/C: 98.4%
[19]
  viability, T/C: 96.7%
[20]
  viability, T/C: 93.6%
[21]
  viability, T/C: 94.8%
[22]
  viability, T/C: 85.2%
[23]
  viability, T/C: 97.6%
[24]
  viability, T/C: 84.1%
Second compound 3.16 µM, first compound 0.0316 µM
  viability, T/C: 67.5%
Second compound 3.16 µM, first compound 0.1 µM
  viability, T/C: 57.3%
Second compound 3.16 µM, first compound 0.316 µM
  viability, T/C: 66.1%
Second compound 3.16 µM, first compound 1 µM
  viability, T/C: 61.7%
Second compound 3.16 µM, first compound 3.16 µM
  viability, T/C: 59.1%
Second compound 3.16 µM, first compound 10 µM
  viability, T/C: 52.5%
Second compound 10 µM, first compound 0.0316 µM
  viability, T/C: 37.2%
Second compound 10 µM, first compound 0.1 µM
  viability, T/C: 33.2%
Second compound 10 µM, first compound 0.316 µM
  viability, T/C: 39.3%
Second compound 10 µM, first compound 1 µM
  viability, T/C: 36.3%
Second compound 10 µM, first compound 3.16 µM
  viability, T/C: 37.4%
Second compound 10 µM, first compound 10 µM
  viability, T/C: 30.9%
